The values that follow come from patent publication US5162203A, “Methods of measuring isozymes and isozyme classes of alcohol dehydrogenase” (President and Fellows of Harvard College, priority 1989, dated 1992).

In data set [1] the test system is ADH activity in human serum. Put plainly: Inhibition of ADH activity in human sera. It is filed as biochemical. To be noted: for effect on rate of reduction of IA in sera with elevated ADH: 0.5 mM. As to the method: (§1) The linear increase of fluorescence was then recorded for 1-10 minutes, until 0.03-1 μM of substrate was consumed. Larger substrate consumption was not found to be desirable (described in subpart (c) below). After this period the instrument sensitivity setting was reduced 10-30 fold, the signal compensated once again by zero suppression (see part 6 above), and 60 μl of 200-400 μM product (e.g., product IB or IIB) was added to provide an internal standard. The added product fluorescence intensity was then measured Fluorescence measurements were optimized for samples with low activity (<1 nM/minute). For samples with higher activity, repeat measurements were made with the serum volume reduced from 60 μl to 10 μl. Rates measured in the presence of the 0.2 mM ADH inhibitors. 4-MeP or 4-PeP, were made by adding 50 μl of 12 mM inhibitor to the cuvette prior to the assay buffer, and the reaction was carried out as above.
(§2) The activities of a large group of serum samples were further examined for inhibition by 4-MeP and 4-PeP, both at 0.2 mM, a concentration that abolishes 95-98% of the Class I and Class II ADH activity as shown in Table IV above. […] In contrast, 4-PeP inhibited activity toward IA by greater than […] and IIA by more than 90% in virtually all samples examined (FIG. 8C). The total number of samples examined was 83 for FIG. 8A, 105 for FIG. 8B, and 44 for FIG. 8C.
(§3) Sera whose ADH activity was increased beyond those seen normally were selected based on the modified NDMA assay as described in part 7 of Example 1. In approximately 3% of several hundred random hospital patients tested, elevations in ADH activity were observed using the modified NDMA assay described in part 7 of Example 1. These sera with elevated levels (>2 NDMA mU/ml) were then tested by the fluorometric assay described in part 8 of Example 1 using IA as substrate. Class I ADH activity was detected in nearly all of those classified as having elevated ADH levels by the NDMA criterion. The fluorescent reaction product was analyzed and confirmed to be the alcohol ADH product IB. The observed reaction was inhibited >95% by 3 mM 4-MeP; this confirmed that the activity observed was due primarily to Class I ADH. The rate of reduction of IA was also diminished by the addition of high concentrations (>>Km) of typical ADH substrates, e.g., 0.5 mM benzaldehyde or butyraldehyde, presumably due to competition. […] The optimal dilution for routine measurements was approximately 50-fold.

The nature of data set [2]: Spectral parameters for absorption and fluorescence of ADH substrates and products. It is filed as physicochemical. Conditions: for Absorption εmax / Absorption λmax / Fluorescence .phi. (quantum yield) / Fluorescence λmax: Mes buffer (45 mM), pH 7.0. As to the method:
The spectral parameters for 4-methoxy-1-naphthaldehyde (IA), 6-methoxy-2-naphthaldehyde (IIA) and their reduction products (IB and IIB, respectively) are shown in Table I.
Ultraviolet absorption spectra were measured on a Cary 219 or Hewlett-Packard 8451 spectrophotometer. Fluorescence measurements were made in a Perkin Elmer MPF3 spectrofluorometer, equipped with an Osram XBO 150 Watt Xenon lamp, an R446 photomultiplier, and thermostatted cell holder through which water was passed from a Poly-Temp circulator with the following spectrometer settings: excitation wavelength 316 nm. bandwidth 8 nm for both substrate IA and IIA; emission wavelength. 370 nm for substrate IA and 360 nm for substrate IIA, emission bandwidth 24 nm. Changes in fluorescence as a result of oxidation or reduction of the substrate was then measured in the ratio mode. Generally, for fluorometric reactions (see part 8 below). a sensitivity setting of 3 was used with compensation of fluorescence background by the zero suppression control of the instrument.
Aldehyde reduction was monitored by following the decrease of absorption at 340 nm in 40 mM Mes buffer, pH 7.1. in the presence of saturating NADH, 50 μM for Class I and 100 μM for Class II. […] Initial reaction rates were measured and kinetic parameters determined by conventional procedures as described by Segel, 1975, Enzyme Kinetics, pp. 591-597, Wiley, N.Y.

Data set [3] can be described thus: Stability of substrates and product solutions. In kind it is physicochemical. Conditions: 200-400 μM, water with <5% ethanol. As to the method: The dilute solutions (300 μM) were prepared by diluting 1 ml of the stock solution to 10 ml with water.
Concentrations were determined spectrophotometrically using a molar absorptivity of 5700 M^-1 cm^-1 at 296 nm for IB and 1270 M^-1 cm^-1 at 330 nm for IIB.

Data set [4] is described as follows: Fluorescence quenching of alcohol products in 50-fold diluted serum. Conditions: 50-fold dilution of serum. It is filed as physicochemical, human. The text has this:
Human serum is known to fluoresce over a broad spectral region (Wolfbeis et al., 1985. Anal. Chim. Acta. 167:203-315); the instrumental settings should therefore be chosen to optimize the signal/background noise ratio. […] A 50-fold dilution of serum minimizes interference and maximizes sensitivity. At this dilution, alcohol product IB is only quenched 15% while IIB is quenched 5%. […] The cause of this background fluorescence is unknown

Data set [5] addresses T1, ADH activity in human serum (Homo sapiens, UniProt P08319).
T1 construct: from tissue; host or cells: human serum of patients and volunteers
Briefly: Inhibition of ADH activity in human sera. In kind it is biochemical. To be noted: 17 healthy volunteers. As to the method: as §1, §2, §3

The target of data set [6] is T2, Class II ADH (Homo sapiens, UniProt P08319). Briefly: Inhibition of Class II ADH. It is filed as biochemical. Also on record: was used to purify Class II ADH from human livers; from tissue; host or cells: human liver. Here is the method: as §1
(§4) Aldehyde reduction and 4-MeP inhibition are near optimal at pH 7.6 which was adopted for the study of serum samples.
(§5) The values for these constants were determined with purified Class II ADH or a mixture of purified Class I isozymes, under the fluorometric assay conditions described above in Example 1.

The test system of data set [7] is Class I ADH. Put plainly: Inhibition of Class I ADH. It is filed as biochemical, human. To be noted: for Class I ADH activity abolished: 0.2 mM inhibitor. As to the method:
as §1, §4, §5

Data set [8] deals with Class I ADH. Put plainly: Inhibition of Class I ADH. In kind it is biochemical, human.
The target in a further data set is T3, Class III ADH (Homo sapiens, UniProt P11766).
T3 construct: Adult human livers were obtained at autopsy; from tissue; host or cells: human liver obtained at autopsy
Put plainly: Inhibition of Class III ADH. In kind it is biochemical. As to the method:
With a high Km value of >0.5 mM, substrate IIA is completely insensitive for Class III ADH. Because Class III ADH has greater hydrophobic selectivity than Classes I and II ADH, naphthaldehydes and quinoline aldehydes which have aliphatic side chains may provide adequate sensitivity for measuring the amount of Class III ADH in serum. In addition because of its greater hydrophobic selectivity, inhibitor compounds such as 4-alkylpyrazoles having aliphatic side chains of 5 carbons (e.g., 4-PeP) or greater may provide, under certain conditions and at certain concentrations, adequate selectivity for measuring Class III ADH in the presence of Classes I and II. […] At 100 μM 4-PeP, the values for inhibition are: Classes I and II, >90%; Class III <10%. Thus, under certain conditions 4-PeP is clearly useful as a selective inhibitor of Class I and II activities, leaving >90% of Class III activity intact and measurable.

Another data set concerns β1 β1 ADH (Class I). Briefly: Inhibition of β1β1 (ββ) ADH. In kind it is biochemical, human. As to the method:
as §1, §4

A further data set concerns the target T4, β2 β2 ADH (Class I) (Homo sapiens, UniProt P00325).
T4 construct: beta2 allele (ADH1B*2)
Put plainly: Inhibition of β2β2 ADH. In kind it is biochemical. To be noted: 0.2 mM 4-MeP. Here is the method: as §1, §4

Data set [9] concerns the target T2, Class II ADH. To be noted: Class II versus other ADH isozymes; cited from earlier work.
Setting [10] is: 0.2 mM inhibitor, read-out: Class II ADH activity abolished.
Setting [11] is: 1 mM 4-PeP, pH 10, 0.1M glycine buffer.

Where two headings read alike, the source gives them in different places.

T3 sequence (P11766 2-374 limits assumed): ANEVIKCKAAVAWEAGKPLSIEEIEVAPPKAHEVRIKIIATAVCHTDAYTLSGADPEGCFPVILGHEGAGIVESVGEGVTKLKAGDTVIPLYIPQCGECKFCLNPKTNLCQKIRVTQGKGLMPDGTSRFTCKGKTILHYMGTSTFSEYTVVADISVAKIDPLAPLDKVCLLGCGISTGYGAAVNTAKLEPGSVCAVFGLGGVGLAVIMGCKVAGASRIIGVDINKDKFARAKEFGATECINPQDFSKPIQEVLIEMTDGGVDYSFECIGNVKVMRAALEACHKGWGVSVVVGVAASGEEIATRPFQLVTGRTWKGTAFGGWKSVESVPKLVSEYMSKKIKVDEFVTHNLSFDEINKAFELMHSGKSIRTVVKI
T2 sequence (P08319 2-380 limits assumed): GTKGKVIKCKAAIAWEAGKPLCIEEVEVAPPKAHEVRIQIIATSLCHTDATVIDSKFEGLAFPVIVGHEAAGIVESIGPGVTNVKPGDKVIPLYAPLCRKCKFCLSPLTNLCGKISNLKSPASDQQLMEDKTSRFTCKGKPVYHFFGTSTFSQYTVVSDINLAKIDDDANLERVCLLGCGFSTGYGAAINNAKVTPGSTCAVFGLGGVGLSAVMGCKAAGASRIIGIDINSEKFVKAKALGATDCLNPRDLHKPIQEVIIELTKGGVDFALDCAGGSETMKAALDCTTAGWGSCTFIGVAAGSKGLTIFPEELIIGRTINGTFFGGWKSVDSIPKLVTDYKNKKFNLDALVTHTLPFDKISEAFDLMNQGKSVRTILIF
T4 sequence (P00325 2-375): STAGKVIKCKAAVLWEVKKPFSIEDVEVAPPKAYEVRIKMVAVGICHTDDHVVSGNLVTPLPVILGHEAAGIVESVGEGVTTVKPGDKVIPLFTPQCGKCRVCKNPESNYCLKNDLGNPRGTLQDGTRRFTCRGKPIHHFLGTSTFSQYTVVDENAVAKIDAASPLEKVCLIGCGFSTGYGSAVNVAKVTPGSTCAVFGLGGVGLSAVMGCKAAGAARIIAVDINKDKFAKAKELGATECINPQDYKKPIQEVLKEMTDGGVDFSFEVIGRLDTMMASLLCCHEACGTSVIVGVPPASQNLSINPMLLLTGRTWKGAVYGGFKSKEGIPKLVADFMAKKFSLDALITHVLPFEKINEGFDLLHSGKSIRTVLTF
T1 sequence (P08319 whole entry): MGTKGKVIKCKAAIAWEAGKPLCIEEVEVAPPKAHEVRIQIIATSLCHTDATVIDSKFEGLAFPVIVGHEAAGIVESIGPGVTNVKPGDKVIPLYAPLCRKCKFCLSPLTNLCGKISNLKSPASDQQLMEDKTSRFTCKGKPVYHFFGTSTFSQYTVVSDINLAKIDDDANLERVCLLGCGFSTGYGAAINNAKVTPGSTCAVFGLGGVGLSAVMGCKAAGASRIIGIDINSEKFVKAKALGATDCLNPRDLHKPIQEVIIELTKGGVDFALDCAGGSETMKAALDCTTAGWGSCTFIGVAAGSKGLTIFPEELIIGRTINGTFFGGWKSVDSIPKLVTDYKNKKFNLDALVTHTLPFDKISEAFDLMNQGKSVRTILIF

For the compound `O=Cc1ccccc1` [benzaldehyde], the “effect on rate of reduction of IA in sera with elevated ADH” value in data set [1] was “diminished”.

In the case of `COc1ccc(CO)c2ccccc12` [IB, 4-methoxy-1-naphthalenemethanol], in [2], the “Absorption εmax” value is listed as 5,400 M^-1 cm^-1, the “Absorption λmax” value is on record as 297 nm, the “Fluorescence .phi. (quantum yield)” value is reported as 0.36 and the “Fluorescence λmax” value is recorded as 370 nm. For the same compound, in [2] (at 296 nm), the molar absorptivity worked out at 5700 M⁻¹ cm⁻¹. For the same compound, the “stability of product solutions” value in [3] was “stable for up to a week”. In addition, the fluorescence quenching in data set [4] was determined as 15%.

On to `CCCCCc1cn[nH]c1` [4-PeP, 4-Pentylpyrazole], for which the “inhibition of IIA activity in sera” value in [1] (0.2 mM 4-PeP, virtually all samples (44)) was “more than 90%”. Also, in [5] (0.2 mM 4-PeP), the “effect on activity towards IIA in normal sera” value is reported as “abolished”. Moreover, the inhibition at 100 µM on Class II ADH [6] (100 μM 4-PeP) is > 90%; at Class III ADH (100 μM 4-PeP), < 10%. Also, the inhibition at 200 µM on Class II ADH [6] (setting [10]) is 95 to 98%. For the same compound, the inhibition at 1000 µM against Class II ADH [6] (setting [11]) is > 100%; at Class III ADH (setting [11]), 60%. Moreover, on Class II ADH [6] (4-PeP, substrate IIA), the “inhibition of Class II activity” value is “more than 90%”. Also, the “Class I ADH activity abolished” value with Class I ADH [7] is on record as 95-98%. For the same compound, the “inhibition of Class I activity” value in the data set with Class I ADH [7] (4-PeP, substrate IA) was “greater than 99%”. In addition, the inhibition with Class I ADH [8] (100 μM 4-PeP) is on record as > 90%. Also, the inhibition of activity in the data set with Class I ADH [8] (setting [11]) is > 99.99%. Also, on Class III ADH (4-PeP, under certain conditions, read-out: Class III activity left intact and measurable), the activity at 100 µM is > 90%.

For the compound `CCCC=O` [butyraldehyde], the “effect on rate of reduction of IA in sera with elevated ADH” value in data set [1] is on record as “diminished”.

In the case of `COc1ccc2cc(CO)ccc2c1` [IIB, 6-methoxy-2-naphthalenemethanol], in data set [2], the “Absorption εmax” value is on record as 1,250 M^-1 cm^-1, the “Absorption λmax” value turned out to be 329 nm, the “Fluorescence .phi. (quantum yield)” value was 0.26 and the “Fluorescence λmax” value is recorded as 355 nm. In addition, in [2] (at 330 nm), the molar absorptivity stood at 1270 M⁻¹ cm⁻¹. Besides, the “stability of product solutions” value in [3] is “stable for up to a week”. Moreover, in [4], the fluorescence quenching turned out to be 5%.

For the compound `Cc1cn[nH]c1` [4-MeP, 4-Methylpyrazole], the “4-MeP Inhibition” value with β1 β1 ADH (Class I) (0.2 mM 4-MeP, substrate IA) is ~ 95%; in the data set on β1 β1 ADH (Class I) (0.2 mM 4-MeP, substrate IIA) it was 98%; with Class I ADH [7] (0.2 mM 4-MeP, substrate IA), 98%; in the data set on Class I ADH [7] (0.2 mM 4-MeP, substrate IIA, average for Class I except ββ), 92%; at β2 β2 ADH (Class I) (substrate IA, nm = not measurable), “nm”. For the same compound, in the data set with β1 β1 ADH (Class I) (0.2 mM 4-MeP, substrate IIA), the “e: fraction of ββ-ADH activity uninhibited” value is listed as 0.025. Also, the “inhibition of Class I ββ isozymes” value in the data set on β1 β1 ADH (Class I) (words) was “inhibited readily”. Further, the “activity toward IIA remaining in sera” value in [1] (0.2 mM 4-MeP, 105 samples) is ≥ 70%. In [1] (0.2 mM 4-MeP, majority of samples (83)), the “inhibition of IA activity in sera” value is reported as “more than 90%”. The “inhibition of IA reaction in sera with elevated ADH” value in data set [1] (3 mM 4-MeP) is given as > 95%. Besides, the “effect on activity towards IIA in normal sera” value in data set [5] (4-MeP) is “insensitive”. The inhibition at 200 µM at Class II ADH [6] (0.2 mM 4-MeP, 15 μM IA or IIA, pH 7.6, read-out: inhibition of Class II ADH) is 11%; at Class II ADH [6] (0.2 mM 4-MeP, substrate IA, read-out: 4-MeP Inhibition), 11%; on Class II ADH [6] (0.2 mM 4-MeP, substrate IIA, as fraction, read-out: c: degree of inhibition of Class II ADH), 11%; on Class II ADH [6] (setting [10]), 95 to 98%; at β2 β2 ADH (Class I) (substrate IIA), 97%. Moreover, the “inhibition of all Class I isozymes” value in the data set with Class I ADH [7] (0.2 mM 4-MeP, 15 μM IA or IIA, pH 7.6) is given as “more than 90%”. For the same compound, the “b: Class I activity fraction retained” value in the data set with Class I ADH [7] (0.2 mM 4-MeP, substrate IA) came out at 0.025. Moreover, in the data set on Class I ADH [7], the “Class I ADH activity abolished” value is 95-98%. The “enhancement of assay specificity for Class I and II isozymes with the two substrates” value in the data set on Class I ADH [7] (4-MeP, Class I relative to Class II) is “about 100 fold”.

For the compound `CCO` [ethanol], the “Km for ethanol of Class II relative to other ADH isozymes” value on Class II ADH [9] was ≤ 100 times.
